Where two headings read alike, the source gives them in different places.
What was measured:
[1] = test system: Puccinia triticina; synonym: Puccinia recondita f. sp. tritici (PUCCRT); experiment: Wheat brown rust (PUCCRT) whole-plant fungicidal test; type: in vivo; details: topical; for pest or weed control at 100 ppm: high volume application; for pest or weed control at 121.5 g/ha: low volume (track spray) application, 121.5 g/H
Description: All fungicides were evaluated using the aforementioned method for their activity vs. all target diseases, unless stated otherwise. Wheat leaf blotch and brown rust activity were also evaluated using track spray applications, in which case the fungicides were formulated as EC formulations, containing 0.1% Trycol 5941 in the spray solutions. Wheat plants (variety Yuma) were grown from seed in a greenhouse in 50% mineral soil/50% soil-less Metro mix until the first leaf was fully emerged, with 7-10 seedlings per pot. These plants were inoculated with an aqueous spore suspension of Septoria tritici either prior to or after fungicide treatments. After inoculation the plants were kept in 100% relative humidity (one day in a dark dew chamber followed by two to three days in a lighted dew chamber at 20° C.) to permit spores to germinate and infect the leaf. The plants were then transferred to a greenhouse set at 20° C. for disease to develop. When disease symptoms were fully expressed on the 1st leaves of untreated plants, infection levels were assessed on a scale of 0 to 100 percent disease severity. Percent disease control was calculated using the ratio of disease severity on treated plants relative to untreated plants. Wheat plants (variety Yuma) were grown from seed in a greenhouse in 50% mineral soil/50% soil-less Metro mix until the first leaf was fully emerged, with 7-10 seedlings per pot. These plants were inoculated with an aqueous spore suspension of Puccinia triticina either prior to or after fungicide treatments. […] The plants were then transferred to a greenhouse set at 24° C. for disease to develop. Fungicide formulation, application and disease assessment followed the procedures as described in the Example A.

[2] = test system: Mycosphaerella graminicola; anamorph: Septoria tritici (SEPTTR); experiment: Leaf blotch of wheat (SEPTTR) whole-plant fungicidal test; type: in vivo; details: Zymoseptoria tritici, topical; for pest or weed control at 100 ppm: high volume application; for pest or weed control at 121.5 g/ha: low volume (track spray) application, 121.5 g/H
Description: All fungicides were evaluated using the aforementioned method for their activity vs. all target diseases, unless stated otherwise. Wheat leaf blotch and brown rust activity were also evaluated using track spray applications, in which case the fungicides were formulated as EC formulations, containing 0.1% Trycol 5941 in the spray solutions. Wheat plants (variety Yuma) were grown from seed in a greenhouse in 50% mineral soil/50% soil-less Metro mix until the first leaf was fully emerged, with 7-10 seedlings per pot. These plants were inoculated with an aqueous spore suspension of Septoria tritici either prior to or after fungicide treatments. After inoculation the plants were kept in 100% relative humidity (one day in a dark dew chamber followed by two to three days in a lighted dew chamber at 20° C.) to permit spores to germinate and infect the leaf. The plants were then transferred to a greenhouse set at 20° C. for disease to develop. When disease symptoms were fully expressed on the 1st leaves of untreated plants, infection levels were assessed on a scale of 0 to 100 percent disease severity. Percent disease control was calculated using the ratio of disease severity on treated plants relative to untreated plants.

[3] = 24 h, 1 Day Protectant, read-out: High Volume activity at 100 ppm PUCCRT 1DP (% disease control rating)
[4] = 72 h, 3 Day Curative, read-out: High Volume activity at 100 ppm PUCCRT 3DC (% disease control rating)
[5] = 24 h, 1 Day Protectant, read-out: High Volume activity at 100 ppm SEPTTR 1DP (% disease control rating)
[6] = 72 h, 3 Day Curative, read-out: High Volume activity at 100 ppm SEPTTR 3DC (% disease control rating)
[7] = 24 h, 1 Day Protectant, read-out: Low Volume activity at 121.5 g/H PUCCRT 1DP (% disease control rating)
[8] = 72 h, 3 Day Curative, read-out: Low Volume activity at 121.5 g/H PUCCRT 3DC (% disease control rating)
[9] = 24 h, 1 Day Protectant, read-out: Low Volume activity at 121.5 g/H SEPTTR 1DP (% disease control rating)
[10] = 72 h, 3 Day Curative, read-out: Low Volume activity at 121.5 g/H SEPTTR 3DC (% disease control rating)

Compound | pest or weed control at 100 ppm [1, 3] | pest or weed control at 100 ppm [1, 4] | pest or weed control at 100 ppm [2, 5] | pest or weed control at 100 ppm [2, 6] | pest or weed control at 121.5 g/ha [1, 7] | pest or weed control at 121.5 g/ha [1, 8] | pest or weed control at 121.5 g/ha [2, 9] | pest or weed control at 121.5 g/ha [2, 10]
COc1ccnc(C(=O)N[C@H]2CCC[C@H](Cc3ccccc3)[C@@H](Cc3ccc(OC(F)(F)F)cc3)[C@H](C)OC2=O)c1O [Compound 97] | > 70% | < 70% | > 70% | < 70% |  |  |  | 
COc1ccnc(C(=O)N[C@H]2CCC[C@H](Cc3ccc(C(F)(F)F)cc3)[C@@H](Cc3ccc(F)cc3)[C@H](C)OC2=O)c1OC(C)=O [Compound 40] |  |  |  |  | < 70% | < 70% | > 70% | < 70%
CCCC[C@@H]1[C@@H](Cc2ccc(C(F)(F)F)cc2)CCC[C@H](NC(=O)c2nccc(OC)c2O)C(=O)O[C@H]1C [Compound 72] | > 70% | < 70% | > 70% | < 70% |  |  |  | 
COc1ccnc(C(=O)N[C@H]2CCC[C@H](CCCc3ccccc3)[C@@H](Cc3ccccc3)[C@H](C)OC2=O)c1OCOC(C)=O [Compound 70] |  |  |  |  | > 70% | < 70% | > 70% | > 70%
COc1ccnc(C(=O)N[C@H]2CCC[C@H](Cc3ccc(Cl)cc3)[C@@H](CC(C)C)[C@H](C)OC2=O)c1OCOC(C)=O [Compound 12] |  |  |  |  | > 70% | < 70% | > 70% | > 70%
CCC[C@H]1CCC[C@H](NC(=O)c2nccc(OC)c2O)C(=O)O[C@@H](C)[C@@H]1Cc1ccccc1 [Compound 82] | > 70% | > 70% | < 70% | > 70% |  |  |  | 
CCOCC(=O)OCOc1c(OC)ccnc1C(=O)N[C@H]1CCC[C@H](Cc2ccccc2)[C@@H](Cc2ccc(OC(F)(F)F)cc2)[C@H](C)OC1=O [Compound 69] |  |  |  |  | < 70% | < 70% | > 70% | < 70%
COc1ccnc(C(=O)N[C@H]2CCC[C@H](Cc3ccccc3)[C@@H](CCc3ccccc3)[C@H](C)OC2=O)c1OC(C)=O [Compound 18] |  |  |  |  | < 70% | < 70% | > 70% | > 70%
COc1ccnc(C(=O)N[C@H]2CCC[C@H](Cc3ccccc3)[C@@H](CCC(C)C)[C@H](C)OC2=O)c1OCOC(=O)C(C)C [Compound 50] |  |  |  |  | > 70% | < 70% | > 70% | > 70%
COc1ccnc(C(=O)N[C@H]2CCC[C@H](CCC(C)C)[C@@H](C3CCCC3)[C@H](C)OC2=O)c1OCOC(=O)C(C)C [Compound 44] |  |  |  |  | > 70% | < 70% | > 70% | > 70%
COc1ccnc(C(=O)N[C@H]2CCC[C@H](Cc3ccccc3)[C@@H](c3ccccc3)[C@H](C)OC2=O)c1OCOC(C)=O [Compound 52] |  |  |  |  | > 70% | < 70% | > 70% | > 70%
COc1ccnc(C(=O)N[C@H]2CCC[C@H](CCC(C)C)[C@@H](CCc3ccccc3)[C@H](C)OC2=O)c1OCOC(C)=O [Compound 34] |  |  |  |  | > 70% | < 70% | > 70% | > 70%
CCCC[C@@H]1[C@@H](Cc2ccccc2)CCC[C@H](NC(=O)c2nccc(OC)c2O)C(=O)O[C@H]1C [Compound 71, N-((3S,7R,8R,9S)-7-benzyl-8-butyl-9-methyl-2-oxooxonan-3-yl)-3-hydroxy-4-methoxypicolinamide] | > 70% | > 70% | > 70% | < 70% |  |  |  | 
COc1ccnc(C(=O)N[C@H]2CCC[C@H](CCCc3ccccc3)[C@@H](Cc3ccc(OC(F)(F)F)cc3)[C@H](C)OC2=O)c1OC(C)=O [Compound 57] |  |  |  |  | < 70% | < 70% | < 70% | < 70%
CCC[C@H]1CCC[C@H](NC(=O)c2nccc(OC)c2OC(C)=O)C(=O)O[C@@H](C)[C@@H]1Cc1ccc(F)cc1 [Compound 46] |  |  |  |  | > 70% | > 70% | > 70% | > 70%
COc1ccnc(C(=O)N[C@H]2CCC[C@H](Cc3ccccc3)[C@@H](c3ccccc3)[C@H](C)OC2=O)c1O [Compound 90] | > 70% | > 70% | > 70% | > 70% |  |  |  | 
COc1ccnc(C(=O)N[C@H]2CCC[C@H](Cc3ccc(Cl)cc3)[C@@H](C3CCCC3)[C@H](C)OC2=O)c1OCOC(=O)C(C)C [Compound 30] |  |  |  |  | < 70% | < 70% | > 70% | > 70%
COc1ccnc(C(=O)N[C@H]2CCC[C@H](CC3CC3)[C@@H](Cc3ccccc3)[C@H](C)OC2=O)c1OCOC(C)=O [Compound 61] |  |  |  |  | > 70% | > 70% | > 70% | > 70%
COc1ccnc(C(=O)N[C@H]2CCC[C@H](CCC(C)C)[C@@H](Cc3ccccc3)[C@H](C)OC2=O)c1OC(C)=O [Compound 4] |  |  |  |  | > 70% | < 70% | > 70% | > 70%
CCOCC(=O)OCOc1c(OC)ccnc1C(=O)N[C@H]1CCC[C@H](Cc2ccccc2)[C@@H](CCc2ccccc2)[C@H](C)OC1=O [Compound 16] |  |  |  |  | > 70% | > 70% | > 70% | > 70%
COc1ccnc(C(=O)N[C@H]2CCC[C@H](Cc3ccc(Cl)cc3)[C@@H](Cc3ccccc3)[C@H](C)OC2=O)c1O [Compound 79] | > 70% | < 70% | > 70% | < 70% |  |  |  | 
COc1ccnc(C(=O)N[C@H]2CCC[C@H](Cc3ccc(C(F)(F)F)cc3)[C@@H](Cc3ccc(F)cc3)[C@H](C)OC2=O)c1OCOC(=O)C(C)C [Compound 41] |  |  |  |  | < 70% | < 70% | < 70% | < 70%
COc1ccnc(C(=O)N[C@H]2CCC[C@H](CCC(C)C)[C@@H](Cc3ccccc3)[C@H](C)OC2=O)c1O [Compound 73] | > 70% | < 70% | > 70% | > 70% |  |  |  | 
COc1ccnc(C(=O)N[C@H]2CCC[C@H](Cc3ccccc3)[C@@H](CCC(C)C)[C@H](C)OC2=O)c1OCOC(C)=O [Compound 47] |  |  |  |  | > 70% | < 70% | > 70% | > 70%
COc1ccnc(C(=O)N[C@H]2CCC[C@H](Cc3ccc(C(F)(F)F)cc3)[C@@H](Cc3ccc(F)cc3)[C@H](C)OC2=O)c1O [Compound 86] | > 70% | < 70% | < 70% | < 70% |  |  |  | 
